The record followed here is patent US10487086.

The conditions of this data set: from C=CCCC(=O)Nc1cc(NC(=O)OC)ccc1-c1nnc(Cl)cc1C(CC=C)NC(=O)OC(C)(C)C; rcm bond; 12-membered ring; Grubbs II (0.3 eq); DCM; 6.6 mM; 40.0 °C; 1.0 h.

Take `COC(=O)Nc1ccc2c(c1)NC(=O)CCC=CCC(NC(=O)OC(C)(C)C)c1cc(Cl)nnc1-2` (stereo not shown): the ring closure, isolated yield was 56%.
